Test results from patent EP4380572B1, “FORMULATION FOR SUBSTITUTED 2-AMINOTHIAZOLES IN THE TREATMENT OF FUNGAL AND FUNGAL-BACTERIAL INFECTIONS OF THE NAIL” (OnychoPharm GmbH, priority 2021, dated 2023).

Tests used:
[1] = Solubility of abafungin in different solvents (saturated solution, UV at 302 nm); type: physicochemical; conditions: shaken 24 h, 19°C
Description: 2 ml of solvent were placed in a glass vial containing abafungin powder. The vial was mechanically shaken for 24 h in an environment with controlled temperature (19°C). Thereafter the content of the vials was transferred into Eppendorf tubes and centrifuged at 13000 rpm for 3 min. The supernatant (saturated solution) was collected and assayed using a UV spectrometer at 302 nm (λmax of abafungin). […] Drug concentration in the saturated solution (or diluted solution) was then determined using a standard curve (Table 2). Each experiment was conducted in triplicates. […]

[2] = cited from earlier work; for stability of the crystalline form: anhydrate polymorphic crystalline forms described in EP 0 718 296 A1

Cc1ccc(Oc2ccccc2-c2csc(N=C3NCCCN3)n2)c(C)c1 [abafungin, 4-[2-(2,4-dimethylphenoxy)phenyl]-N-(1,4,5,6-tetrahydropyrimidin-2-yl)-1,3-thiazol-2-amine]
Solubility mg/100 ml mean ± standard deviation ([1]; solvent 1,2-propanediol): 219.93 ± 12.10 mg/100 ml
Solubility mg/100 ml mean ± standard deviation ([1]; solvent DMSO): 4483.42 ± 16.30 mg/100 ml
Solubility mg/100 ml mean ± standard deviation ([1]; solvent N-methyl pyrrolidone): 27678.92 ± 434.07 mg/100 ml
Solubility mg/100 ml mean ± standard deviation ([1]; solvent PEG600): 5029.70 ± 12.70 mg/100 ml
Solubility mg/100 ml mean ± standard deviation ([1]; solvent butyl acetate): 822.13 ± 2.55 mg/100 ml
Solubility mg/100 ml mean ± standard deviation ([1]; solvent ethanol): 238.46 ± 2.72 mg/100 ml
Solubility mg/100 ml mean ± standard deviation ([1]; solvent ethyl acetate): 803.75 ± 35.51 mg/100 ml
Solubility mg/100 ml mean ± standard deviation ([1]; solvent isopropanol myristate): 50.60 ± 4.30 mg/100 ml
Solubility mg/100 ml mean ± standard deviation ([1]; solvent isopropanol): 156.14 ± 16.5 mg/100 ml
Solubility mg/100 ml mean ± standard deviation ([1]; solvent water): < 0.032 mg/100 ml

Cc1ccc(Oc2ccccc2-c2csc(N=C3NCCCN3)n2)c(C)c1 [modification 1]
stability of the crystalline form [2]: metastable

Cc1ccc(Oc2ccccc2-c2csc(N=C3NCCCN3)n2)c(C)c1 [modification 2]
stability at high humidity ([2]; 85% relative humidity, over months): stable
stability of the crystalline form [2]: photochemically and thermodynamically more stable
